Test results: publication PMC6178183, “Development of a HPLC-MS/MS Method to Determine 11 Bioactive Compounds in Tongmai Yangxin Pill and Application to a Pharmacokinetic Study in Rats” (Evidence-based Complementary and Alternative Medicine : eCAM, 2018)
Several values for one entry are separate records, joined by “and”; a condition that tells them apart may be missing. Identical values can stand only once.

Tests used:
[1] = set-up: method as in PMID 25943824; conditions: active ingredients of TMYX with high R values; cited from earlier work
[2] = Pharmacokinetic study in rats after oral administration of TMYX extract (HPLC-MS/MS of plasma); type: in vivo, Sprague–Dawley rats; conditions: rat plasma; for AUC(0-inf) / half-life / AUC / k el: male, Sprague-Dawley; for AUC: read-out: AUC (0-tn); for k el: read-out: K e (converted); for T max1: n=6, mean ± SD
Procedure: The HPLC-MS/MS system consists of an Agilent 1200 high-performance liquid chromatography coupled with an Aglient 6430 series triple quadrupole mass spectrometer with an electrospray ionization (ESI) source. The chromatographic separation was achieved on a CORTECS C18 column (4.6 mm × 150 mm, 2.7 μm), and the column temperature was kept at 30°C. Mobile phases which consisted of 0.1% formic acid in water (A) and acetonitrile (B) were used in the following gradient elution method: 0-10 min, 10%-85% B; 10-13 min, 85%-95% B; 13-19 min, 95%-95% B. The flow rate was set at 0.3 mL/min, and the injection volume was 10 μL. All data were analyzed by Mass Hunter workstation software (Agilent Technologies, USA).
The mass spectrometer was carried out in both positive and negative ionization multiple-reaction monitoring (MRM) mode. The source parameters were as follows: the capillary voltage set at 300 V for positive ionization mode and -300 V for negative ionization mode, the drying gas temperature was 320°C, the flow was 11 L/min, and nebulizing gas pressure was 30 psi.
The plasma (100 μL) was spiked with 20 μL of methanol, 20 μL of the IS (icariin, 1 μg/mL), and 20 μL of formic acid and then vortex-mixed. The mixture was extracted with 800 μL of ethyl acetate by vortex mixing for 5 min at room temperature. After centrifugation at 14,000 rpm for 10 min, the supernatant was collected to a clean tube and evaporated to dryness under a nitrogen stream. The residue was reconstituted in 50 μL of 50% methanol, vortexed for 5 min, and centrifuged at 14,000 rpm for 10 min. Finally, 10 μL supernatant was injected into the LC-MS/MS system for analysis.
Male Sprague–Dawley rats (230-250 g) were obtained from Beijing HFK Experimental Animal Technology Co., Ltd. The rats were maintained under the control environmental conditions and they fasted for 12 h with free access to water before the experiments. TMYX extracts were dissolved in CMC-Na and administrated orally to rats at 8.3 g/kg. The blood samples (200 μL) were collected from the rat fossa orbitalis vein at 0, 0.03, 0.083, 0.17, 0.25, 0.5, 1, 2, 4, 6, 8, 10, 12, 24, 36, and 48 h after oral administration to heparinized tubes. And then the blood samples were centrifuged at 7,000 rpm for 10 min to get the plasma sample immediately. Finally, the plasma obtained was stored at −70°C until analysis. Pharmacokinetic parameters were calculated by the computer program “Drug and Statistics 2.0” (DAS 2.0) (Medical College of Wannan, China).

[3] = Stability of analytes in rat plasma QC samples under storage conditions; type: in vitro ADME; conditions: n=6, gallic acid, ononin, schisandrin, stilbene glycoside, liquiritigenin, rhein, verbascoside; for Measured Concentration, auto-sampler for 12 h: prepared rat plasma samples; for Measured Concentration, -70°C for 14 days / Measured Concentration, room temperature for 6 h / Measured Concentration, three freeze-thaw cycles: rat plasma
Procedure: Quality control (QC) samples at three concentrations (low, medium, and high concentration) were made up of appropriate mixed standard solutions with blank blood sample as calibration solutions to meet the required concentrations. All the solutions were kept at 4°C.
The stability of analytes in plasma samples was determined by analyzing QC samples of three concentration levels at different conditions: stored at autosampler for 12 h, at room temperature for 6 h, under three freeze-thaw cycles and stored at -70°C for 14 days. All stability studies were measured in six replicates.

[4] = oral TMYX extract 8.3 g/kg single dose, n=6
[5] = oral TMYX extract 8.3 g/kg single dose
[6] = high QC: spiked 2000 ng/mL glycyrrhizic acid, 1000 liquiritin, 200 emodin, 100 isoliquiritigenin
[7] = low QC: spiked 20 ng/mL glycyrrhizic acid, 10 liquiritin, 2 emodin, 1 isoliquiritigenin
[8] = medium QC: spiked 200 ng/mL glycyrrhizic acid, 100 liquiritin, 20 emodin, 10 isoliquiritigenin
[9] = second peak, oral TMYX extract 8.3 g/kg single dose, n=6

| SMILES | antiinflammatory effects [1] | AUC(0-inf) [2, 4] [ng·h/mL] | half-life [2, 4] [h] | AUC [2, 4] [ng·h/mL] | k el [2, 4] [s⁻¹] | C max1 [2, 4] [ng/mL] | T max1 [2, 5] | Measured Concentration, auto-sampler for 12 h [3, 6] [ng/mL] | Measured Concentration, auto-sampler for 12 h [3, 7] [ng/mL] | Measured Concentration, auto-sampler for 12 h [3, 8] [ng/mL] | Measured Concentration, -70°C for 14 days [3, 6] [ng/mL] | Measured Concentration, room temperature for 6 h [3, 6] [ng/mL] | Measured Concentration, three freeze-thaw cycles [3, 6] [ng/mL] | Measured Concentration, -70°C for 14 days [3, 7] [ng/mL] | Measured Concentration, room temperature for 6 h [3, 7] [ng/mL] | Measured Concentration, three freeze-thaw cycles [3, 7] [ng/mL] | Measured Concentration, -70°C for 14 days [3, 8] [ng/mL] | Measured Concentration, room temperature for 6 h [3, 8] [ng/mL] | Measured Concentration, three freeze-thaw cycles [3, 8] [ng/mL] | other results |
| --- | --- | --- | --- | --- | --- | --- | --- | --- | --- | --- | --- | --- | --- | --- | --- | --- | --- | --- | --- | --- |
| COc1ccc(-c2coc3cc(O)ccc3c2=O)cc1 [formononetin] | exert antiinflammatory effects in a dose-dependent manner | – | – | – | – | – | – | – | – | – | – | – | – | – | – | – | – | – | – | – |
| O=C(O)c1cc(O)c(O)c(O)c1 [gallic acid] | – | 238 ± 173 | 3.01 ± 1.35 | 215 ± 137 | 7.5e-05 | 56.9 ± 42.8 | 0.75 ± 0.67 h | 184.54 ± 2.46 | 2.03 ± 0.05 | 19.27 ± 0.35 | 199.19 ± 1.80 | 205.97 ± 2.14 | 196.77 ± 1.09 | 1.99 ± 0.04 | 1.97 ± 0.03 | 1.93 ± 0.04 | 19.26 ± 0.22 | 20.77 ± 1.09 | 20.08 ± 0.51 | – |
| COc1cc2c(c(OC)c1OC)-c1c3cc4c(c1OC[C@@H](C)[C@@](C)(O)C(=O)O[C@@H]2[C@@](C)(O)[C@@H](C)C3)OCO4 [gomisin D] | exert antiinflammatory effects in a dose-dependent manner | – | – | – | – | – | – | – | – | – | – | – | – | – | – | – | – | – | – | – |
| O=C(/C=C/c1ccc(O)cc1)c1ccc(O)cc1O [isoliquiritigenin] | – | 436 ± 154 | 13.5 ± 8.33 | 410 ± 131 | 1.94e-05 | 41.6 ± 24.2 | 0.28 h and 0.28 ± 0.11 h | 97.47 ± 1.99 | 1.00 ± 0.02 | 9.60 ± 0.04 | 100.74 ± 2.95 | 106.11 ± 0.78 | 100.58 ± 0.91 | 0.89 ± 0.01 | 0.99 ± 0.01 | 0.89 ± 0.02 | 8.62 ± 0.04 | 10.86 ± 0.60 | 8.69 ± 0.14 | detection in vivo at 48 h ([2]; 48 h after oral TMYX extract 8.3 g/kg): can still be detected in vivo at 48 h; peaks in the mean plasma concentration-time profile ([2]; oral TMYX extract 8.3 g/kg): double peaks; C max2 [2, 9]: 24.9 ± 13.5 ng/mL; T max2 [2, 9]: 7.00 h and 7.00 ± 2.45 h |
| O=C1C[C@@H](c2ccc(O[C@@H]3O[C@H](CO)[C@@H](O)[C@H](O)[C@H]3O)cc2)Oc2cc(O)ccc21 [liquiritin] | – | 651 ± 220 | 2.16 ± 1.44 | 637 ± 220 | 0.000214 | 199.9 ± 120.2 | 0.50 ± 0.46 h | 869.12 ± 14.52 | 10.26 ± 0.11 | 108.02 ± 0.66 | 1021.69 ± 19.98 | 1076.07 ± 10.27 | 952.89 ± 11.22 | 10.04 ± 0.12 | 9.85 ± 0.09 | 9.26 ± 0.16 | 105.05 ± 1.73 | 108.97 ± 1.51 | 109.67 ± 1.86 | – |
| COc1ccc(-c2coc3cc(O[C@@H]4O[C@H](CO)[C@@H](O)[C@H](O)[C@H]4O)ccc3c2=O)cc1 [ononin] | exert antiinflammatory effects in a dose-dependent manner | 69.4 ± 28.5 | 2.85 ± 1.4 | 58.2 ± 20.2 | 0.000103 | 14.4 ± 6.8 | 0.46 ± 0.10 h | 195.34 ± 4.30 | 1.83 ± 0.01 | 18.84 ± 0.62 | 200.23 ± 3.89 | 216.32 ± 0.91 | 191.28 ± 2.36 | 1.95 ± 0.01 | 2.02 ± 0.03 | 1.85 ± 0.01 | 18.51 ± 0.15 | 20.57 ± 0.26 | 18.71 ± 0.26 | – |
| O=C(O)c1cc(O)c2c(c1)C(=O)c1cccc(O)c1C2=O [rhein] | – | 152 ± 61.3 | 2.84 ± 2.13 | 145 ± 52.6 | 0.000156 | 46.3 ± 15.6 | 0.36 ± 0.31 h | 97.32 ± 1.05 | 0.97 ± 0.01 | 9.86 ± 0.09 | 85.95 ± 0.39 | 101.97 ± 1.07 | 86.7 ± 1.33 | 0.95 ± 0.05 | 0.97 ± 0.02 | 0.98 ± 0.03 | 8.71 ± 0.11 | 10.23 ± 0.04 | 8.89 ± 0.08 | – |
| C[C@@H]1O[C@@H](O[C@@H]2[C@@H](O)[C@H](OCCc3ccc(O)c(O)c3)O[C@H](CO)[C@H]2OC(=O)/C=C/c2ccc(O)c(O)c2)[C@H](O)[C@H](O)[C@H]1O [verbascoside] | – | 61 ± 29.8 | 1.53 ± 0.67 | 51.4 ± 29.8 | 0.000156 | 23.4 ± 8.7 | 0.37 ± 0.18 h | 93.52 ± 0.27 | 1.05 ± 0.02 | 9.50 ± 0.04 | 107.40 ± 1.47 | 103.95 ± 1.33 | 108.42 ± 1.17 | 1.01 ± 0.02 | 0.92 ± 0.01 | 1.09 ± 0.01 | 9.81 ± 0.22 | 9.57 ± 0.21 | 10.17 ± 0.90 | – |
